In patent publication US6737383B1, “Herbicidal oxadiazolidines” (priority 1999, dated 2004):

Tests used:
[1] = tested on: sugar beet; test: Test B pre/postemergence sugar beet; type: in vivo, Beta vulgaris; conditions: for Plant response rating, Sugarbeets: scale of 0 to 10 where 0 is no effect and 10 is complete control
Procedure, shortened: (§1)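 Test chemicals in a non-phytotoxic solvent mixture with surfactant were sprayed preemergence onto planted seeds and postemergence onto plants 2 to 18 cm tall (1- to 4-leaf stage). After twelve to sixteen days in a greenhouse, injury was visually rated against untreated controls from 0 (no effect) to 10 (complete control).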

[2] = tested on: velvetleaf; test: Test B pre/postemergence velvetleaf; type: in vivo, Abutilon theophrasti; conditions: for Plant response rating, Velvetleaf: scale of 0 to 10 where 0 is no effect and 10 is complete control
Procedure, shortened: as §1

[3] = tested on: purple nutsedge; test: Test B pre/postemergence purple nutsedge; type: in vivo, Cyperus rotundus; conditions: for Plant response rating, Nutsedge: scale of 0 to 10 where 0 is no effect and 10 is complete control
Procedure, shortened: as §1

[4] = tested on: bedstraw; test: Test B pre/postemergence bedstraw; type: in vivo, Galium aparine
Procedure, shortened: as §1

[5] = tested on: wheat; test: Test B pre/postemergence wheat; type: in vivo, Triticum aestivum; conditions: for Plant response rating, Wheat: scale of 0 to 10 where 0 is no effect and 10 is complete control
Procedure, shortened: as §1

[6] = tested on: surinam grass; test: Test B pre/postemergence surinam grass; type: in vivo, Brachiaria decumbens
Procedure, shortened: as §1

[7] = tested on: cocklebur; test: Test B pre/postemergence cocklebur; type: in vivo, Xanthium strumarium
Procedure, shortened: as §1

[8] = tested on: smallflower flatsedge; test: Test B flood test smallflower flatsedge; type: in vivo, Cyperus difformis
Procedure, shortened: (§2)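 Flood test on plants grown to the 2-leaf stage; treated plants kept in greenhouse twelve to sixteen days, then visually rated against controls on a 0 (no effect) to 10 (complete control) scale.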

[9] = tested on: rice; test: Test B flood test rice; type: in vivo, Oryza sativa
Procedure, shortened: as §2

[10] = tested on: giant foxtail; test: Test B pre/postemergence giant foxtail; type: in vivo, Setaria faberii
Procedure, shortened: as §1

[11] = tested on: rape; test: Test B pre/postemergence rape; type: in vivo, Brassica napus; conditions: for Plant response rating, Rape: scale of 0 to 10 where 0 is no effect and 10 is complete control
Procedure, shortened: as §1

[12] = tested on: duck salad; test: Test B flood test duck salad; type: in vivo, Heteranthera limosa
Procedure, shortened: as §2

[13] = tested on: soybean; test: Test B pre/postemergence soybean; type: in vivo, Glycine max; conditions: for Plant response rating, Soybean: scale of 0 to 10 where 0 is no effect and 10 is complete control
Procedure, shortened: as §1

[14] = tested on: corn; test: Test B pre/postemergence corn; type: in vivo, Zea mays
Procedure, shortened: as §1

[15] = tested on: wild oat; test: Test B pre/postemergence wild oat; type: in vivo, Avena fatua; conditions: for Plant response rating, Wild oats: scale of 0 to 10 where 0 is no effect and 10 is complete control
Procedure, shortened: as §1

[16] = tested on: pigweed; test: Test B pre/postemergence pigweed; type: in vivo, Amaranthus retroflexus; conditions: for Plant response rating, Redroot pigweed: scale of 0 to 10 where 0 is no effect and 10 is complete control
Procedure, shortened: as §1

[17] = Postemergence, Rate 250 g/ha, scale 0 to 10
[18] = Preemergence, Rate 250 g/ha, scale 0 to 10, 0 is no effect, 10 is complete control
[19] = Preemergence, Rate 500 g/ha, scale 0 to 10, 0 is no effect, 10 is complete control
[20] = Rate 62 g/ha, Postemergence, scale 0 to 10 (0 no effect, 10 complete control)
[21] = Rate 125 g/ha, Postemergence, scale 0 to 10, 0 is no effect, 10 is complete control
[22] = Postemergence, Rate 500 g/ha, scale of 0 to 10 where 0 is no effect and 10 is complete control
[23] = Preemergence, Rate 62 g/ha, scale of 0 to 10 where 0 is no effect and 10 is complete control
[24] = Preemergence, Rate 125 g/ha, scale of 0 to 10 where 0 is no effect and 10 is complete control
[25] = Rate 62 g/ha, flood test species, Pre-emergence, visual evaluation after twelve to sixteen days
[26] = Rate 125 g/ha, under heading Pre-emergence, flood test species, visual evaluation after twelve to sixteen days
[27] = Rate 250 g/ha, Pre-emergence (flood test species), scale 0 to 10, 0 is no effect, 10 is complete control
[28] = Rate 500 g/ha, Pre-emergence, flood test species, scale 0 to 10 (0 no effect, 10 complete control)

CC(C)N(C(=O)n1oc(=O)n(CCCl)c1=O)c1ccc(Cl)cc1 [Compound 474]
0: Sugarbeets plant response rating [1, 17] | Plant response rating, Sugarbeets ([1]; Preemergence, Rate 62 g/ha) | Plant response rating, Sugarbeets ([1]; Preemergence, Rate 125 g/ha) | Sugarbeets plant response rating [1, 18] | Sugarbeets plant response rating [1, 20] | Sugarbeets plant response rating [1, 21] | Velvetleaf plant response rating [2, 17] | Plant response rating, Velvetleaf ([2]; Preemergence, Rate 62 g/ha) | Plant response rating, Velvetleaf ([2]; Preemergence, Rate 125 g/ha) | Velvetleaf plant response rating [2, 18] | Velvetleaf plant response rating [2, 19] | Velvetleaf plant response rating [2, 20] | Velvetleaf plant response rating [2, 21] | Nutsedge plant response rating [3, 17] | Plant response rating, Nutsedge ([3]; Preemergence, Rate 62 g/ha) | Plant response rating, Nutsedge ([3]; Preemergence, Rate 125 g/ha) | Nutsedge plant response rating [3, 18] | Nutsedge plant response rating [3, 19] | Nutsedge plant response rating [3, 20] | Nutsedge plant response rating [3, 21] | Plant response rating, Bedstraw [4, 23] | Bedstraw plant response rating [4, 19] | Wheat plant response rating [5, 17] | Plant response rating, Wheat ([5]; Preemergence, Rate 62 g/ha) | Plant response rating, Wheat ([5]; Preemergence, Rate 125 g/ha) | Wheat plant response rating [5, 18] | Wheat plant response rating [5, 19] | Wheat plant response rating [5, 20] | Wheat plant response rating [5, 21] | Plant response rating, B. signalgrass [6, 23] | B. signalgrass plant response rating [6, 20] | Cocklebur plant response rating [7, 17] | Plant response rating, Cocklebur [7, 23] | Plant response rating, Cocklebur [7, 24] | Cocklebur plant response rating [7, 18] | Cocklebur plant response rating [7, 19] | Cocklebur plant response rating [7, 20] | Cocklebur plant response rating [7, 21] | Plant response rating, S. Flatsedge (0 to 10 scale, 0 is no effect, 10 is complete control) [8, 25] | S. Flatsedge plant response rating (0 to 10 scale, 0 is no effect, 10 is complete control) [8, 26] | S. Flatsedge plant response rating [8, 27] | S. Flatsedge plant response rating [8, 28] | Plant response rating, Rice (0 to 10 scale, 0 is no effect, 10 is complete control) [9, 25] | Rice plant response rating (0 to 10 scale, 0 is no effect, 10 is complete control) [9, 26] | Rice plant response rating [9, 27] | Rice plant response rating [9, 28] | Rape plant response rating [11, 17] | Plant response rating, Rape ([11]; Preemergence, Rate 62 g/ha) | Plant response rating, Rape ([11]; Preemergence, Rate 125 g/ha) | Rape plant response rating [11, 20] | Rape plant response rating [11, 21] | Plant response rating, Ducksalad (0 to 10 scale, 0 is no effect, 10 is complete control) [12, 25] | Ducksalad plant response rating (0 to 10 scale, 0 is no effect, 10 is complete control) [12, 26] | Ducksalad plant response rating [12, 27] | Ducksalad plant response rating [12, 28] | Plant response rating, Soybean ([13]; Preemergence, Rate 62 g/ha) | Plant response rating, Soybean ([13]; Preemergence, Rate 125 g/ha) | Soybean plant response rating [13, 18] | Soybean plant response rating [13, 19] | Corn plant response rating [14, 17] | Corn plant response rating [14, 22] | Plant response rating, Corn [14, 23] | Plant response rating, Corn [14, 24] | Corn plant response rating [14, 18] | Corn plant response rating [14, 20] | Corn plant response rating [14, 21] | Wild oats plant response rating [15, 17] | Plant response rating, Wild oats ([15]; Preemergence, Rate 62 g/ha) | Wild oats plant response rating [15, 20] | Wild oats plant response rating [15, 21] | Redroot pigweed plant response rating [16, 20]
7: B. signalgrass plant response rating [6, 18] | B. signalgrass plant response rating [6, 19] | Giant foxtail plant response rating [10, 17] | Plant response rating, Giant foxtail [10, 23] | Redroot pigweed plant response rating [16, 19]
5: Redroot pigweed plant response rating [16, 18]
2: Plant response rating, B. signalgrass [6, 24] | Rape plant response rating [11, 18] | Redroot pigweed plant response rating [16, 17]
1: B. signalgrass plant response rating ([6]; Postemergence, Rate 250 g/ha, scale 0 to 10, 0 no effect, 10 complete control) | B. signalgrass plant response rating [6, 21] | Plant response rating, Redroot pigweed ([16]; Preemergence, Rate 62 g/ha) | Redroot pigweed plant response rating [16, 21]
6: Bedstraw plant response rating [4, 20] | Bedstraw plant response rating [4, 21] | Giant foxtail plant response rating [10, 21]
3: Sugarbeets plant response rating [1, 19] | Giant foxtail plant response rating [10, 20] | Soybean plant response rating [13, 20] | Plant response rating, Wild oats ([15]; Preemergence, Rate 125 g/ha) | Plant response rating, Redroot pigweed ([16]; Preemergence, Rate 125 g/ha)
10: Plant response rating, Giant foxtail [10, 24] | Giant foxtail plant response rating [10, 18] | Giant foxtail plant response rating [10, 19]
4: B. signalgrass plant response rating [6, 22] | Cocklebur plant response rating [7, 22] | Rape plant response rating [11, 19] | Soybean plant response rating [13, 17] | Soybean plant response rating [13, 21] | Corn plant response rating [14, 19] | Wild oats plant response rating [15, 18]
8: Bedstraw plant response rating [4, 17] | Bedstraw plant response rating [4, 22] | Giant foxtail plant response rating [10, 22] | Wild oats plant response rating [15, 19]
